Patent US7091040B1, “P450/acetaminophen genetically directed enzyme prodrug therapy (GDEPT)” (Innovata PLC, priority 1999, dated 2006)

Assays:
[1] = Viability of H1A2 MZ cells (stably transfected with human CYP1A2) incubated with acetaminophen, trypan blue exclusion; details: Chinese hamster
Description: (§1) For cell viability experiments 200,000 cells per well were plated on 12 well plates (Beckton-Dickenson, Oxford, UK), using the medium and conditions required by the tumour cell line and allowed to adhere overnight. After this the cells were washed with PBS before the addition of acetaminophen in 0.1 ml PBS (concentrations of 0.1–20 mM acetaminophen were dissolved in PBS by sonication) and then maintained at 37° C. At the appropriate time points, cells were removed from the plates by trypsinisation and collected by centrifugation. Cell viability was measured as ability to exclude trypan blue. Cells were counted at ×100 magnification using an Improved Neubauer haemocytometer; all cell counts are the mean of duplicate determinations of five fields from duplicate experiments.
(§2) V79 MZ Chinese hamster cells were maintained in Dulbecco-Vogt's modified Eagle's Medium (DMEM) supplemented with 10% foetal calf serum 9FCS), 2 mM L-glutamine, penicillin (100 U/ml and streptomycin (100 μg/ml) (all tissue culture reagents were obtained from Gibco BRL, Paisley, UK). H1A2 MZ cells, which are V79 MZ cells transfected with the human CYP1A2 gene, were also maintained in supplemented DMEM with the addition of geneticin at a concentration of 4 mg/ml. SK-OV-3 cells were grown in DMEM supplemented with 15% FCS and 2 mM L-glutamine, without the addition of antibiotics. RPMI-1640 medium with 10% FCS, 2 mM L-glutamine, penicillin (100 U/ml) and streptomycin ([…]) was required by the HCT116 cells. These cell lines were maintained at 37° C. with 100% humidity and 5% CO2. […] At confluence cells were removed from tissue culture flasks by inubation with trypsin-EDTA for 5 min, diluted 1:3–1:6 in fresh medium and seeded onto fresh flasks. The tumour cell lines were obtained from the European Collection of Cell Cultures.

H1A2 MZ cells = experiment: as above; details: H1A2 MZ cells; 0.1 mM acetaminophen; 6 h
Description: as §1, §2

[2] = Viability of V79 MZ cells, alone or co-cultured with H1A2 MZ cells (bystander effect), with acetaminophen, trypan blue exclusion; assay type: cell-based, Chinese hamster; details: Chinese hamster; for viability at 4 mM: 4 mM acetaminophen 6 h, then 24 h in culture medium; for viability at 0 h, 4 mM / viability at 6 h, 4 mM: 4 mM acetaminophen in PBS
Description: (§3) Table 1 represents the bystander effect on viability produced by incubating H1A2 MZ cells (stably transfected with human CYP1A2) with various cell-lines in the presence of acetaminophen. Tumour cells or V79 MZ cells (non transfected, parental cells) were co-cultured overnight with various mixtures of H1A2 MZ cells (as indicated in the Table), […] the cells were then washed once with PBS and maintained for either 24 or 48 h in culture medium appropriate to each cell type, as detailed in the Methods section. At 0, 6, 24 or 48 h the cells were washed in PBS and viability of the mixed cell population determined by trypan blue exclusion. The data shown are mean values±SEM of 4 separate determinations. Statistical significance was determined at each time point by comparing viability measurements in the mixed cell populations with both the viability determined at 0 h and in the absence of H1A2 MZ cells in the mixture 2×2 contingency tables using the 2-tailed Chi-squared test with Yate's correction. Viability was determined in a total of 1500 cells at each time point. Levels of significance are indicated as **p<0.001; ***p<0.0001;
(§4) FIG. 4 represents the bystander effect on viability produced by incubating stably transfected, acetaminophen-activating H1A2 MZ cells with non-transfected parental V79 MZ cells. […] The cells were then washed in PBS and the viability of the mixed cell population determined by trypan blue exclusion. The cultures comprised V79 MZ cells only (open squares), and V79 MZ cells mixed with 5% (solid squares), 10% (open triangles), 25% (open circles) and 50% (solid circles) H1A2 MZ cells. In addition, the viability of H1A2 MZ cells in the presence (crosses) and absence (solid triangles) of acetaminophen is shown.

V79 MZ cells = experiment: as above; assay type: cell-based, Chinese hamster
Description: as §3, §4

SK-OV-3 cells = experiment: Bystander effect on viability of SK-OV-3 cells co-cultured with H1A2 MZ cells in the presence of acetaminophen, trypan blue exclusion; assay type: cell-based, human; details: for viability at 4000 µM: Homo sapiens
Description: Tumour cells or V79 MZ cells (non transfected, parental cells) were co-cultured overnight with various mixtures of H1A2 MZ cells (as indicated in the Table), washed with PBS and incubated with 4 mM acetaminophen in PBS for 6 h at 37° C. the cells were then washed once with PBS and maintained for either 24 or 48 h in culture medium appropriate to each cell type, as detailed in the Methods section. At 0, 6, 24 or 48 h the cells were washed in PBS and viability of the mixed cell population determined by trypan blue exclusion. The data shown are mean values±SEM of 4 separate determinations. Statistical significance was determined at each time point by comparing viability measurements in the mixed cell populations with both the viability determined at 0 h and in the absence of H1A2 MZ cells in the mixture 2×2 contingency tables using the 2-tailed Chi-squared test with Yate's correction. Viability was determined in a total of 1500 cells at each time point. Levels of significance are indicated as **p<0.001; ***p<0.0001;
as §1, §2

[3] = V79 MZ cells + 5% H1A2 MZ cells
[4] = V79 MZ cells + 10% H1A2 MZ cells
[5] = V79 MZ cells + 25% H1A2 MZ cells
[6] = V79 MZ cells + 50% H1A2 MZ cells

CC(=O)Nc1ccc(O)cc1 [acetaminophen]
viability at 6 h, 1 mM [1]: 62%
viability at 6 h, 4 mM [1]: 8%
cytotoxicity (H1A2 MZ cells): No cytotoxicity
viability at 4 mM [2, 3]: 0%
viability at 0 h, 4 mM [2, 3]: 98 ± 1%
viability at 6 h, 4 mM [2, 3]: 52%
viability at 4 mM [2, 4]: 0%
viability at 0 h, 4 mM [2, 4]: 98 ± 1%
viability at 6 h, 4 mM [2, 4]: 39 ± 6%
viability at 4 mM [2, 5]: 0%
viability at 0 h, 4 mM [2, 5]: 97 ± 2%
viability at 6 h, 4 mM [2, 5]: 20 ± 4%
viability at 4 mM [2, 6]: 0%
viability at 0 h, 4 mM [2, 6]: 96 ± 3%
viability at 6 h, 4 mM [2, 6]: 15 ± 7%
viability at 4 mM ([2]; V79 MZ cells, 0% H1A2 MZ cells): 98 ± 1%
viability at 0 h, 4 mM ([2]; V79 MZ cells, 0% H1A2 MZ cells): 99 ± 1%
viability at 6 h, 4 mM ([2]; V79 MZ cells, 0% H1A2 MZ cells): 94 ± 7%
Viability (%) (V79 MZ cells; V79 MZ cells + 5% H1A2 MZ cells, 4 mM acetaminophen 6 h, then 24 h in culture medium): zero
Viability (%) (V79 MZ cells; V79 MZ cells, 0% H1A2 MZ cells, 4 mM acetaminophen in PBS, 6 h): no decline in cell viability
cell viability (V79 MZ cells; V79 MZ cells, which lack CYP1A2, acetaminophen 0.1–20 mM, 6 h): no loss of cell viability
viability at 4000 µM (SK-OV-3 cells; SK-OV-3, 0 h, SK-OV-3 cells + 5% H1A2 MZ cells, 4 mM acetaminophen in PBS, 0 h): 98 ± 1%
viability at 4000 µM (SK-OV-3 cells; SK-OV-3, 0 h, SK-OV-3 cells + 10% H1A2 MZ cells, 4 mM acetaminophen in PBS, 0 h): 98 ± 1%
viability at 4000 µM (SK-OV-3 cells; SK-OV-3, 0 h, SK-OV-3 cells + 25% H1A2 MZ cells, 4 mM acetaminophen in PBS, 0 h): 97 ± 1%
viability at 4000 µM (SK-OV-3 cells; SK-OV-3, 0 h, SK-OV-3 cells + 50% H1A2 MZ cells, 4 mM acetaminophen in PBS, 0 h): 98 ± 1%
viability at 4000 µM (SK-OV-3 cells; SK-OV-3, 0 h, SK-OV-3 cells, 0% H1A2 MZ cells, 4 mM acetaminophen in PBS, 0 h): 97 ± 1%
viability at 4000 µM (SK-OV-3 cells; SK-OV-3, 6 h, SK-OV-3 cells + 5% H1A2 MZ cells, 4 mM acetaminophen in PBS, 6 h): 55 ± 2%
viability at 4000 µM (SK-OV-3 cells; SK-OV-3, 6 h, SK-OV-3 cells + 10% H1A2 MZ cells, 4 mM acetaminophen in PBS, 6 h): 43 ± 7%
viability at 4000 µM (SK-OV-3 cells; SK-OV-3, 6 h, SK-OV-3 cells + 25% H1A2 MZ cells, 4 mM acetaminophen in PBS, 6 h): 22 ± 11%
viability at 4000 µM (SK-OV-3 cells; SK-OV-3, 6 h, SK-OV-3 cells + 50% H1A2 MZ cells, 4 mM acetaminophen in PBS, 6 h): 16 ± 9%
viability at 4000 µM (SK-OV-3 cells; SK-OV-3, 6 h, SK-OV-3 cells, 0% H1A2 MZ cells, 4 mM acetaminophen in PBS, 6 h): 98 ± 2%
viability at 4000 µM (SK-OV-3 cells; SK-OV-3, SK-OV-3 cells + 5% H1A2 MZ cells, 4 mM acetaminophen 6 h, then 24 h in culture medium): 0%
viability at 4000 µM (SK-OV-3 cells; SK-OV-3, SK-OV-3 cells + 10% H1A2 MZ cells, 4 mM acetaminophen 6 h, then 24 h in culture medium): 0%
viability at 4000 µM (SK-OV-3 cells; SK-OV-3, SK-OV-3 cells + 25% H1A2 MZ cells, 4 mM acetaminophen 6 h, then 24 h in culture medium): 0%
viability at 4000 µM (SK-OV-3 cells; SK-OV-3, SK-OV-3 cells + 50% H1A2 MZ cells, 4 mM acetaminophen 6 h, then 24 h in culture medium): 0%
viability at 4000 µM (SK-OV-3 cells; SK-OV-3, SK-OV-3 cells, 0% H1A2 MZ cells, 4 mM acetaminophen 6 h, then 24 h in culture medium): 96 ± 3%
Viability (%) (SK-OV-3 cells; SK-OV-3 cells + 5% H1A2 MZ cells, 4 mM acetaminophen 6 h, then 24 h in culture medium): zero
susceptibility to cytotoxicity produced by the activation of acetaminophen (SK-OV-3 cells; SK-OV-3 cells mixed with H1A2 MZ cells, 4 mM acetaminophen, 6 h): highly sensitive
